In patent US20080038278A1, “GPAT3 encodes a mammalian, microsomal acyl-coa:glycerol 3- phosphate acyltransferase” (priority 2006, published 2008):

Key:
hGPAT3 = molecular target: T1, hGPAT3 (Homo sapiens, UniProt Q53EU6); assay: GPAT activity assay (TLC separation of LPA) in lysates of cells overexpressing hGPAT3; assay type: biochemical; conditions: for substrate concentration at half-maximal activity (hGPAT3-dependent LPA formation): hGPAT3 expressed in Sf9 cells, nonpurified lysate, other substrate at 100 μM; for increase in LPA formation conferred by hGPAT3 overexpression after NEM pretreatment: preincubated 15 min with NEM (0.4 mM, 0.4 μM elsewhere in the source)
T1 construct: full-length mouse and human GPAT3 were cloned by PCR amplification from cDNA libraries; made in house; host or cells: Sf9 insect cells (baculovirus, pFASTBAC1), total lysate; some experiments used lysates of HEK293 cells transfected with hGPAT3 in pcDNA3.1
T1 sequence (Q53EU6 1-434): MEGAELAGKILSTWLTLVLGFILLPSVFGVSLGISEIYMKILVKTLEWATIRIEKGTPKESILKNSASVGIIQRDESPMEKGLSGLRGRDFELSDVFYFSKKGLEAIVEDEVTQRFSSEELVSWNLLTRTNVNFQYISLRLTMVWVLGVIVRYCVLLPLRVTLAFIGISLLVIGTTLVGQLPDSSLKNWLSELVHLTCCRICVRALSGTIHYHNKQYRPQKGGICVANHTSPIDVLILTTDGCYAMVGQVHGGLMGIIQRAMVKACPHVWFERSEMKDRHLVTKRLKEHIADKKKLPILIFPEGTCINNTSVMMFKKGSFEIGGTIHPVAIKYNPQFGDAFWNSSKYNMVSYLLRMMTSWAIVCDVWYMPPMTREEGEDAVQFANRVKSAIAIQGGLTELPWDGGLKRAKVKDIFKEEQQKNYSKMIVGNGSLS
Description: Sf9 cells were infected with recombinant baculovirus at an MOI of 10 for 64 hrs. Cell pellets were harvested in ice-cold phosphate-buffered saline (PBS), lysed by sonication or Parr bomb, and total lysate was used immediately for enzyme assay. For subcellular fractionation, cel.ls were lysed with a rapid nitrogen decompression method (Parr Instrument Company, IL), followed by differential centrifugation at 8,000g (mitochondrial fraction) and 1 00,000g (microsomal fraction). Total protein concentration was assayed using a Bio-Rad protein assay with bovine serum albumin (BSA) as a standard (Bio-Rad, Hercules, Calif.). GPAT activity was determined by measuring the conversion of glycerol 3-phosphate (G3 P) to 1-acyl-sn-glycerol 3-phosphate in the presence of acyl-CoA. Formation of enzymatic products was detected by either the conventional 1-butanol extraction method followed by scintillation counting, or by thin layer chromatography (TLC) separation followed by exposure to a phosphorimager screen. GPAT activity assay by I -butanol extraction was performed as described (Yet et al., supra; Haldar and Vancura (1992) Methods Enzymol. 209:64-72). Briefly, cell lysates containing 100 μg protein were incubated for 20 min at room temperature in 75 mM Tris HCl, pH 7.5, 4 mM MgCl2, 1 mg/ml fatty acid-free BSA, 8 mM NaF, 50 μM lauroyl-CoA, 3 mM glycerol 3-phosphate, and 1 μCi of [^3H]glycerol 3-phosphate (30 Ci/mmol, American Radiolabeled Chemicals, Inc., St. Louis, Mo.) in a total volume of 250 μl. The reaction was stopped by addition of 0.5 ml of water-saturated 1-butanol and 0.5 ml of 1-butanol-saturated water followed by a vigorous vortex for 5 min. After a brief spin, the top phase (butanol) was transferred to a fresh tube and washed again with 0.5 ml of butanol-saturated water. Finally, an aliquot of the butanol phase was mixed with scintillation cocktail to count radioactivity using Accurate Radioisotope Counting (ARC).
To assess the GPAT activity more precisely, a TLC separation procedure was utilized. […] For TLC, enzymatic products were identified using standards detected by exposure to […]. All quantitative data are expressed as mean±S.E. Statistical analyses for differences between two groups were carried out using a Student's t-test.
To further investigate the role of GPAT3 in TAG and/or phospholipid synthesis in mammalian cells, GPAT3 was overexpressed in HEK293 cells and the incorporation of [^14C]oleic acid into TAG or phospholipids was measured. […]

human mtGPAT1 = molecular target: T2, human mtGPAT1 (Homo sapiens, UniProt Q9HCL2); assay: GPAT activity assay (TLC separation of LPA) in lysates of HEK293 cells overexpressing mtGPAT1; assay type: biochemical; conditions: preincubated 15 min with NEM
T2 construct: expressed in transfected cells; host or cells: HEK293 cells, transient transfection (FUGENE 6); total lysate assayed
T2 sequence (Q9HCL2 1-828): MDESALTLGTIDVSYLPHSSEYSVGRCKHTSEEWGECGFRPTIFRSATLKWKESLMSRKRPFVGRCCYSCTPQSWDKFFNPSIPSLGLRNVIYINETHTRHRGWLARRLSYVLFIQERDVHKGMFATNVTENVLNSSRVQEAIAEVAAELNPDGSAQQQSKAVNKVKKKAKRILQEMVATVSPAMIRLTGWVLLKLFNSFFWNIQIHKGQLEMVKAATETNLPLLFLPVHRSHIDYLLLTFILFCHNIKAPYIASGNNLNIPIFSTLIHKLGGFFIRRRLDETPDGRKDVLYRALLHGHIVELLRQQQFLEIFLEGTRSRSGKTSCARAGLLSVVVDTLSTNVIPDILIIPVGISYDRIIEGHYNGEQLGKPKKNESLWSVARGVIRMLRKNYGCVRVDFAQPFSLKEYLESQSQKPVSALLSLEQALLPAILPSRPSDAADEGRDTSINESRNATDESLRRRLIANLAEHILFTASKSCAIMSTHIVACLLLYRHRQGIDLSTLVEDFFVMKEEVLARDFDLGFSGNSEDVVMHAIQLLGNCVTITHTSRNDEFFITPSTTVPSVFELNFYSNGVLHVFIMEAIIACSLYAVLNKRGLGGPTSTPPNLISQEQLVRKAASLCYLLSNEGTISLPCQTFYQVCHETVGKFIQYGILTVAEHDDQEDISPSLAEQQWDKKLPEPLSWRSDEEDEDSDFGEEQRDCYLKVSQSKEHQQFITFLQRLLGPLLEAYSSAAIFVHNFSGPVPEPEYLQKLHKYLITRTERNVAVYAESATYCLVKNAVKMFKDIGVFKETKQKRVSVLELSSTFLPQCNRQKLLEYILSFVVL

mGPAT3 mRNA = mGPAT3 mRNA (Q-PCR) in white adipose tissue of ob/ob mice treated with PPARγ agonist; assay type: in vivo, mouse; conditions: 15 mg/kg gavage once a day for 21 days
Description: To confirm and extend the transcriptional profiling data, TAQMAN® (Applied Biosystems, Foster City, Calif.) real-time quantitative PCR (Q-PCR) analysis was performed using probes specific for mouse and human GPAT3. Briefly, undifferentiated and differentiated 3T3-L1 adipocytes, tissues from normal 8-12 week old male C57B1/6J mice, and tissues from 10-week old male ob/ob and age-matched wild type control mice were obtained as previously described (Lake et al., supra). For PPARγ agonist treatment, 10-week old male ob/ob mice were gavaged once a day with 15 mg/kg rosiglitazone or vehicle control for 21 days. RNA and cDNA were prepared as previously described (Lake et al., supra). Gene profiling data were generated using the MOE430 chip according to the manufacturer's recommendations (Affymetrix, Santa Clara, Calif.). Q-PCR was performed using an ABI PRISM® 7900 sequence detector (Applied Biosystems, Foster City, Calif.) with 18s as an internal control as described (Lake et al., supra). Gene-specific primers and probes were obtained from Applied Biosystems (Cat. Nos. mm00554802_ml and Hs00262010_ml). Relative expression was determined by the […] (Applied Biosystems, Foster City, Calif.).
PPARγ agonists such as rosiglitazone induce expression of the lipogenic program in adipose tissue (Rosen and Spiegelman (2001) J. Biol. Chem. 276:37731-34). […]

O=P(O)(O)OCC(O)CO (stereo not drawn) [G3P, glycerol 3-phosphate]
substrate concentration at half-maximal activity (hGPAT3-dependent LPA formation) (hGPAT3): ~80 µM

CCN1C(=O)C=CC1=O [NEM, N-ethylmaleimide]
increase in LPA formation conferred by hGPAT3 overexpression after NEM pretreatment (hGPAT3; HEK293 lysates): completely abolished | increase in LPA formation conferred by hGPAT3 overexpression after NEM pretreatment (hGPAT3; Sf-9 lysates): completely abolished | mtGPAT1-dependent LPA formation after NEM pretreatment (human mtGPAT1): not affected

CCCCCCCCCCCC(=O)SCCNC(=O)CCNC(=O)[C@H](O)C(C)(C)COP(=O)(O)OP(=O)(O)OC[C@H]1O[C@@H](n2cnc3c(N)ncnc32)[C@H](O)[C@@H]1OP(=O)(O)O [lauroyl-CoA]
substrate concentration at half-maximal activity (hGPAT3-dependent LPA formation) (hGPAT3): ~25 µM

CN(CCOc1ccc(CC2SC(=O)NC2=O)cc1)c1ccccn1 (stereo not drawn) [rosiglitazone]
induced expression of mGPAT3 mRNA in white adipose tissue over control (mGPAT3 mRNA): 4.5 fold
